From ChEMBL document CHEMBL5634144, “Design, synthesis and biological evaluation of novel DCLK1 inhibitor containing purine skeleton for the treatment of pancreatic cancer” (Eur J Med Chem, 2023)

Biological target: T1, Serine/threonine-protein kinase DCLK1 (Homo sapiens, UniProt O15075)
T1 sequence (O15075 whole entry): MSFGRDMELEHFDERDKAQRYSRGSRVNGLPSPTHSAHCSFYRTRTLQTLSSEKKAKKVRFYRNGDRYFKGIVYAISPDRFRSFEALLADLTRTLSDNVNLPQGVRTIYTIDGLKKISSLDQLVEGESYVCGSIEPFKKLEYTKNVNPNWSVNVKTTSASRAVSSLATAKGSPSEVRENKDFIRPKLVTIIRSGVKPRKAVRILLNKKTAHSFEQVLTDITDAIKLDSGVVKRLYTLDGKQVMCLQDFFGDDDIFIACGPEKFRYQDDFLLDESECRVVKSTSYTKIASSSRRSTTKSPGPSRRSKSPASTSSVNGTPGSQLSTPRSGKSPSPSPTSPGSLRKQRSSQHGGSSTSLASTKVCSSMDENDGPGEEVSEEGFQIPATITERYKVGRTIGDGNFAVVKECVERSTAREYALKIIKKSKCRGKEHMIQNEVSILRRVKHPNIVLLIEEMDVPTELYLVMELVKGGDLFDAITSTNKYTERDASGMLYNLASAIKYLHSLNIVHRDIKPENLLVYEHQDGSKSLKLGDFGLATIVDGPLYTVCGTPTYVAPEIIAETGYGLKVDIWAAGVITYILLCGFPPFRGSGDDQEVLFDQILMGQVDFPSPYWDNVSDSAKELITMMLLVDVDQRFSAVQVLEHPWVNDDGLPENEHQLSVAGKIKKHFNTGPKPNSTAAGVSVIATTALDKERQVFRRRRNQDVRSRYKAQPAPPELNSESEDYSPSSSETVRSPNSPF
Experiment: Inhibition of DCLK1 (unknown origin) preincubated for 10 mins followed by substrate/ATP addition measured after 60 mins by mobility shift assay

IC50: 171 nM
Compound: COc1ccccc1Nc1nc(Nc2ccccc2S(=O)(=O)C(C)C)c2nc[nH]c2n1
